Test results as given in patent US20260308158A1, “TARGETING RNAS ASSOCIATED WITH TAUOPATHIES WITH SMALL MOLECULES” (University of Florida Research Foundation, Incorporated, priority 2023, published 2026).

How the values were obtained:
[1] = Plasma protein binding by equilibrium dialysis; type: in vitro ADME; conditions: 37° C., 6 h (2 at 5 μM), read-out: free fraction in plasma
Description: Plasma and brain binding. Plasma protein binding was determined by equilibrium dialysis using a Thermo Scientific™ RED Device per the manufacturer's protocol. Each sample was prepared by addition of 2 into 100 μL plasma with final concentration of 5 μM (0.1% (v/v) DMSO). 1×PBS was used as dialysis buffer and was added into the buffer chamber. The plate was incubated with shaking at 37° C. for 6 h. The concentration of 2 in the plasma and buffer compartments was determined as described in Quantitation of 2 in Mouse Plasma and Brain. The free fraction was calculated as [buffer]/[plasma].

[2] = tested on: WT I17T MAPT mini-gene (exon 10 splicing); assay: 4R/3R MAPT mRNA by RT-qPCR, HeLa cells transfected with WT I17T mini-gene; type: cell-based; conditions: ASO 0.5 μM
Description: (§1) RNA Isolation and Real-Time Quantitative PCR (RT-qPCR). HeLa cells were treated as described in the Luciferase Reporter assay to Study Exon 10 Alternative Splicing. LAN5 cells were seeded in 12-well plates at 0.2×10^6 cells per well, treated with compound or ASO, and incubated for 48 h. Compound stocks prepared in DMSO and ASO stocks prepared in water were diluted in growth medium and added to cells. Total RNA was extracted from cells and analyzed via RT-qPCR to determine levels of 3R and 4R tau mRNA. In brief, the cells were washed with 1×DPBS and then lysed in the well using 300 μL of Lysis Buffer provided in a Quick-RNA MiniPrep kit (Zymo Research), which was used to extract total RNA per the manufacturer's protocol including the on-column DNase I digestion. The concentration of total RNA was measured by NanoDrop 2000 (Thermo Fisher Scientific). Only samples with OD260/OD280>1.8 were carried forward for analysis. Reverse transcription (RT) was carried out on 200 ng of total RNA using a qScript cDNA synthesis kit (QuantaBio) in a total volume of 10 μL according to the manufacturer's protocol. An Applied Biosystems QS5 384-well PCR system was used to complete qPCR reactions with Power SYBR Green Master Mix (Life Technologies), 600 nM each primer (Table S3), 20 ng of cDNA (1 μL of the RT reaction), in a total volume of 33 μL. Technical triplicates (10 μL each) were aliquoted into 384-well qPCR plates (Applied biosystems, 4483285). Subsequent qPCR analysis was performed using an Applied Biosystems QS5 384-well PCR system (software v.1.3.0). 4R/3R ratio were analyzed using ΔΔCt method using Equation 2: […]
(§2) where ΔCt 4R or ΔCt 3R is the difference between the Ct values for the 4R or 3R MAPT mRNA and a housekeeping gene (18S rRNA) in total RNA from cells.

[3] = tested on: MAPT exon 10 splicing in LAN5 cells; assay: 4R/3R endogenous MAPT mRNA by RT-qPCR in LAN5 neuroblastoma cells; type: cell-based; conditions: for PSI10 in all cell lines: ASO, all cell lines of FIGS. 12A-12C (LAN5, HeLa mini-genes, htau primary neurons)
Description: as §1, §2

[4] = tested on: DDPAC I17T MAPT mini-gene (exon 10 splicing); assay: 4R/3R MAPT mRNA by RT-qPCR, HeLa cells transfected with DDPAC I17T mini-gene; type: cell-based; conditions: ASO 0.5 μM
Description: as §1, §2

[5] = tested on: LAN5 transcriptome; assay: RNA-seq transcriptome-wide selectivity in LAN5 cells; type: cell-based, human
Description: RNA-Seq. LAN5 cells in 12-well plate (~60% confluency) were treated with 2 (1.5 μM), 0.1% (v/v) DMSO (vehicle), 4R-to-3R tau ASO (0.5 μM), or scrambled ASO (0.5 μM) for 48 h. Total RNA was extracted using an RNeasy Mini Kit (Qiagen) per the manufacturer's protocol. Next, rRNA was depleted using NEBNext rRNA depletion modules (E6310L, New England Biosciences) and prepared with NEBNext Ultra II Dir RNA Lib Prep Kit (E7760S, New England Biosciences) according to the manufacturer's protocol. The prepared libraries were processed with NextSeq 500/550 High Output Kit v2.5 (Illumina, 20024907) per the manufacturer's protocol and then sequenced on a NextSeq 500. After sequencing, the BCL files were converted to FASTQ files using basemount/0.12.8.1516 and bcl2fastq/2.17.1.14.^33 The sequencing depth was over 82 million for each sample.
FastQC^34 and RSeQC^35 were used to determine the quality of reads and any overrepresentation of sequences. HISAT2^36 was used to map the reads to the reference human genome (hg19), and the output SAM files were converted to BAM files and sorted by index. Kallisto^37 and NCBI reference sequences (RefSeq)^38 were used for gene quantification to calculate transcripts per million (TPM). Differentially expressed genes were detected with Sleuth^39 and determined by a multiple test corrected p-value<0.05. Splicing event PSI values were quantitated using MISO.^40

[6] = tested on: MAPT exon 10 splicing in primary neurons from htau mice; assay: 4R/3R MAPT mRNA by RT-qPCR in primary neurons from htau mice; type: cell-based, human MAPT in htau transgenic mouse neurons; conditions: 48 h
Description: as §1
Isolation and Treatment of Primary Neurons from Humanized tau (hTau) Transgenic Mice. All animal studies were completed as approved by the Scripps Florida Institutional Animal Care and Use Committee. […]

Row | fraction unbound at 6 h [1] | Molecule | effect on 4R/3R ratio [2] | PSI10 in all cell lines [3] | effect on 4R/3R ratio [4] | expression of MAPT gene ([5]; 2 at 1.5 μM or ASO 0.5 μM) | alternative splicing of MAPT exons (exon 10) ([5]; 2 at 1.5 μM or tau ASO 0.5 μM) | genes unchanged, percent ([5]; tau ASO 0.5 μM, 48 h) | reduction of 4R/3R MAPT ratio ([3]; ASO 0.5 μM, LAN5, 48 h) | 4R/3R ratio and PSI10 [6]
1 | 0.377 ± 0.042 | NC(=O)N1c2ccccc2C=Cc2ccccc21 [Carbamazepine, reference compound] | – | – | – | – | – | – | – | –
2 | – | scrambled ASO: scrambled ASO 5′-CTGTCTGACGTTCTTTGT-3′ (SEQ ID NO: 2), negative control (chemistry not given here) [reference compound] | not scrambled ASO altered the 4R/3R ratio | not scrambled ASO was also downregulated | not scrambled ASO altered the 4R/3R ratio | – | – | – | – | –
3 | – | tau ASO: Vivo-Morpholino antisense oligonucleotide targeting the MAPT exon-10-intron junction hairpin, 5′-TGAAGGTACTCACACTGCCGC-3′ (SEQ ID NO: 1) (all phosphorodiamidate morpholino (PMO); Vivo-Morpholino: morpholino with attached delivery moiety, further chemistry not fully specified) [reference compound] | altered the 4R/3R ratio | also downregulated in all cell lines | altered the 4R/3R ratio | Neither 2 nor the ASO altered the expression of MAPT gene | only one significantly reduced | 99.97% | ~ 82% | dose dependent reduction
